In patent publication EP1985629A1, “Pro-apoptotic molecules and therapeutic uses thereof” (UNIVERSITA DEGLI STUDI DI GENOVA, priority 2007, dated 2008):
Where a SMILES comes first, the peptide text is derived from it. [ ]: non-standard residue; d: D form. Aib = CC(C)(N)C(=O)O

Columns and labels:
U937, Jurkat, Namalwa = experiment: Cell growth, cell counts (trypan blue exclusion), three cell lines; format: cell-based, human; conditions: 10 µM, twice every 48 h, four days
Method: (§1) • Figure 1 Fluorescence Anisotropy Assay. Average anisotropy values: (open square) binding assay for increasing concentrations of Bcl-XL at a fixed concentration of fluorescent Bak-BH3 peptide. […] The error bars represent standard deviations observed from triplicate experiments. • Figure 2 072RB: cell growth effects. Panel A: Cell growth of U937 cell line treated for four days every 24 h at a 1 µM 072RB concentration and every 48 h at 3, 5, 10 and 30 µM 072RB concentrations. U937 controls at day 4, cell number: 350,000 ±50,000. Number of cells seeded at day 0: 20,000. Arrows indicate treatment time. […] All cells were counted in a Burker chamber and values are expressed as percentage of the untreated control cell number. Only living cells identified by trypan blue exclusion staining were counted. […] Flow cytometry measurements of DNA content (evaluated by propidium iodide (PI) fluorescence intensity) and physical cell side-scattering (evaluated by SSC) in U937 cells treated with Int and 072RB at 10 µM, twice each 48h. […] Three main cell populations can be observed in the bivariate PI/SSC plots, one with low SSC and normal DNA content (that accounts for "live" cells in culture), another with high SSC and normal DNA content (cells undergoing "early stage of apoptosis") and another one with lower PI fluorescence (cells at "late stage of apoptosis" and debris). […]

Bcl-XL = target: T1, Bcl-XL (Homo sapiens, UniProt Q07817, S2L); experiment: Fluorescence anisotropy binding and competition binding assay; conditions: competition binding assay: BakF-BH3 2E-8 M, competitor peptide 2E-7 M, Bcl-XL 2E-8 M to 1E-6 M; 45 min, 30°C; read-out: Weighted mean Kd
T1 construct: with the C-terminus truncated; His6; made in house; host or cells: Escherichia coli BL21 (pLys)
T1 sequence (Q07817 1-212 S2L): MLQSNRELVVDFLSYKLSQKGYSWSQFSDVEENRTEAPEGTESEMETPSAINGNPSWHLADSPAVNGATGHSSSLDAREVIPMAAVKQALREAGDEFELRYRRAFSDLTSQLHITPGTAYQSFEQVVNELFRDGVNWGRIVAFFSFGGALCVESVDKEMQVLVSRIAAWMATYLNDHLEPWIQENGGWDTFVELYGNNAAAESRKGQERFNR
Method: Fluorescence Anisotropy was monitored with a Polarion Instrument (Tecan, Austria): excitation wavelength = 485 nm, emission wavelength = 535 nm. […] Anisotropy values were studied at a fixed concentration of fluoresceinated Bak BH3 molecule (2E-8 M), a fixed concentration of peptide inhibitors (2E-7 M) and increasing concentrations of Bel-XL (from 2E-8 M to 1E-6 M). Experiments were performed in 96-wells black non-binding plates (Corning), the experimental volume was always 200 µl / well. Reagents were mixed at room temperature and maintained at a constant temperature (30°C) during the measurements. Anisotropy measurements were performed at different times of incubation to assess the stability of the reactions. […]
For simple binding experiments we evaluated the Kd using a nonlinear regression analysis [NLIN SAS] to fit the Lundblad equation [38]. […]
We calculated the expected Anisotropy value solving a third degree equation obtained extending the simple binding equation to a competitive binding inhibition assay. […]
Point estimates of each equilibrium constant were evaluated using meta-analytical tools weighting each experimental result for its estimated variance. […]
Fluorescence Anisotropy (FA) is a quantitative technique to analyze the interaction of a smaller fluorescent molecule with a larger non fluorescent molecule. […]

[1] = test system: U937 and Jurkat cell lines; experiment: Detection of mitochondrial permeability transition (DiOC6 fluorescence); format: cell-based, human; conditions: two cell lines, 4 days, 5 and 10 µM, two independent experiments
U937 cell line = experiment: Cell growth, cell counts (trypan blue exclusion); format: cell-based, human; conditions: U937, 1 µM up to 30 µM, four days
Method: as §1

CC[C@H](C)[C@H](NC(=O)[C@H](CCCNC(=N)N)NC(=O)[C@H](CCCNC(=N)N)NC(=O)[C@H](CC(C)C)NC(=O)[C@H](CCC(=O)O)NC(=O)[C@H](CCC(N)=O)NC(=O)C(C)(C)NC(=O)[C@@H](NC(=O)[C@H](Cc1ccc(O)cc1)NC(=O)[C@@H](NC(=O)[C@H](CCC(=O)O)NC(=O)[C@@H]1CCCN1C(=O)[C@H](CCCNC(=N)N)NC(=O)[C@H](CCSC)NC(=O)[C@@H](N)CC(=O)O)[C@@H](C)CC)[C@@H](C)CC)C(=O)NCC(=O)N[C@@H](CC(=O)O)C(=O)N[C@@H](C)C(=O)N[C@@H](Cc1ccccc1)C(=O)N[C@@H](CC(N)=O)C(=O)NC(C)(C)C(=O)N[C@@H](Cc1ccc(O)cc1)C(=O)N[C@@H](CCCCN)C(=O)N[C@@H](CCCCN)C(=O)N[C@@H](Cc1c[nH]c2ccccc12)C(=O)N[C@@H](CCCCN)C(=O)N[C@@H](CCSC)C(=O)N[C@@H](CCCNC(=N)N)C(=O)N[C@@H](CCCNC(=N)N)C(=O)N[C@@H](CC(N)=O)C(=O)N1CCC[C@H]1C(=O)N[C@@H](Cc1ccccc1)C(=O)N[C@@H](Cc1c[nH]c2ccccc12)C(=O)N[C@H](C(=O)N[C@@H](CCCCN)C(=O)N[C@H](C(=O)N[C@@H](CCC(N)=O)C(=O)N[C@@H](CCCNC(=N)N)C(N)=O)[C@@H](C)CC)[C@@H](C)CC [Peptide 072RB] (H-DMRPEIYI[Aib]QELRRIGDAFN[Aib]YKKWKMRRNPFWIKIQR-NH2; N-terminus and C-terminus assumed) was tested. Which “cell growth compared to control cultures” value (U937, Jurkat, Namalwa) did it give?
The value was “progressive decrease of cell growth”.

What about the Kd (Bcl-XL) of the same molecule?
The Kd was 4.3 nM.

And the “MPT (reduced DiOC6 fluorescence)” value [1]?
Its value is “clear MPT effects”.

What about the “cell growth (cell counts)” value (U937 cell line) of the same molecule?
The value was “dose-dependent inhibition of cell growth”.
